Entries after “also recorded” stand apart in the source; their conditions may differ.
What was measured:
[1] = tested on: infarcted myocardium; assay: R1 mapping with SI0 map 20 minutes after Gd(DTPA) in dogs 48 h after reperfusion of myocardial infarction; assay type: in vivo, dog
Method: In three dogs (n=3), weighing 18-20 kg, myocardial infarctions (MI) were generated by a 180-minute closed-chest coronary artery occlusion. Forty-eight hours following reperfusion, baseline R10 map and SI0-map (see below) were generated using the inversion-recovery (IR) technique with multiple inversion times (TI) (FIG. 6). Delayed-Enhancement (DE) imaging was carried out exactly 15 minutes after Gd(DTPA) (0.2 mmol/kg) administration. Baseline parametric R10 maps, and corresponding SI0 maps, that cover the left ventricle (LV), in a dog 48 h after myocardial infarction, are shown in FIG. 6. R1 was calculated from the SI vs. TI dependence as detailed herein. The calculated baseline relaxation rate of myocardium was R10=1.03±0.05 s^−1, which was later used for calculating the PIM. For the purpose of generating PIMs, 20 minutes after the administration of Gd(DTPA), high resolution images of the entire heart were acquired with two TIs using the same image localizations and sequence parameters (except the TI) as for the baseline R10 and SI0 maps. Details of selecting the optimum TIs are discussed further below. From these images and from the corresponding SI0 maps, voxel-by-voxel R1 maps were generated. Average R1 values in remote myocardium and infarct core were R1=1.73±0.07 s^−1, and R1=3.22±0.09 s^−1, respectively. R1 in LV chamber blood was R1=2.53±0.05 s^−1. ΔR1 (ΔR1=R1−R10) was calculated automatically for each voxel utilizing the baseline R10 map. Average ΔR1r in the remote viable regions was 0.7±0.07 s^−1, while in the center of the infarct (denoted 100% infarcted) ΔR1c was 2.19±0.09 s^−1. The contribution of any contrast-agent-accumulating infarct islet contributes to the total ΔR1 of that voxel. Therefore, ΔR1 is proportional to the amount of non-viable tissue present in any given voxel. Thus, a percent infarct (PI) scale was created, where the core ΔR1c (maximum R1 enhancement observed in the center of the infarct) was considered 100% whereas the ΔR1r of remote areas was 0%. In the canine model used in the present disclosure, the myocardial infarct was generated by prolonged proximal occlusion of the Left Anterior Descending coronary artery, using an intracoronary balloon catheter. Animals were anesthetized and mechanically ventilated during MRI sessions (using isoflurane). A 1.5 Tesla GE Signa Horizon “Cardiac CV” instrument was used for cardiac MRI. Images were generated in standard consecutive short-axis planes (6 slices covering the entire LV) and one additional three-chamber long-axis view to assess the apex (left ventricular outflow tract view).

[2] = tested on: infarcted myocardium; assay: R1 mapping (inversion recovery MRI) 24 h and 48 h after PCA in canine reperfused myocardial infarction; assay type: in vivo, dog; settings: for Average R1r (R1 in remote regions) / Average ΔR1r (ΔR1 in remote regions): remote myocardium
Excerpt: In FIG. 2, multislice voxel-by-voxel R1 maps (A) and PIMs (B), generated from such images, are shown. The good quality and coregistration of images acquired with varying TI, was confirmed by the R^2 values obtained for the pixel-by-pixel curve-fitting applied to the SI vs. TI dependence. Average R^2 in the myocardium was 0.99±0.005.
Average R10 was 0.98±0.05 s^−1, in agreement with other investigators' findings. […] This proves Gd(ABE-DTTA) to be a PCA suitable for multi-T1 R1 mapping.
In the canine model used in the present disclosure, the myocardial infarct was generated by prolonged proximal occlusion of the Left Anterior Descending coronary artery, using an intracoronary balloon catheter. Animals were anesthetized and mechanically ventilated during MRI sessions (using isoflurane).
A 1.5 Tesla GE Signa Horizon “Cardiac CV” instrument was used for cardiac MRI. Images were generated in standard consecutive short-axis planes (6 slices covering the entire LV) and one additional three-chamber long-axis view to assess the apex (left ventricular outflow tract view).
A 180°-prepared, segmented, fast gradient-echo sequence, was used to determine R1 values of the myocardium using the inversion recovery method. Short axis and long axis images were generated using the following parameters: FOV 300 mm, image matrix 256×256, slice thickness 10 mm, read out flip angle 25°, echo time (TE) 3.32 ms, repetition time (TRp) 7.18 ms, and recycle time (TR) 1200-2000 ms (three R-R intervals, depending on heart rate, but constant throughout an entire given R1 mapping procedure). Inversion times (TI) in the range of 200-1200 ms were used. In theory, 6 different TIs should be sufficient to generate a R1 map. In this disclosure, however, 8-10 TIs were used to ensure accuracy of R1 determination. The R1 values were calculated from the SI vs. TI dependence, applying a three-parameter least-squares curve fitting routine, using the following formula: […]
Since all MRI parameters below reflect the entire volume element in the slice, associated with a given pixel, from this point on the term voxel, rather than pixel, will be used.). The relaxation rate R1 (R1≡1/T1) of each voxel was composed of R10, the myocardial R1 observed in the absence of both infarct and PCA, and ΔR1, the contribution of the PCA present in the voxel:
Using Eq. 2, the R1 map was transformed into a ΔR1 map. The average ΔR1r value of areas remote from the infarct zone (about 600 voxels), was considered representative of 0% infarction.
As a threshold, ΔR1v of all remote voxels where R1v<R1r+2SD, was set to zero.

[3] = 20 minutes after Gd(DTPA) 0.2 mmol/kg
[4] = 20 minutes after Gd(DTPA), ΔR1=R1−R10

hourly change in R1 in all myocardial areas ([2]; between 24 and 48 hours post PCA)	rate of decay in the infarct ([2]; within the acquisition time frame of about 30-40 minutes)	Compound	Average R1 in infarct core [1, 3] [s⁻¹]	Average R1 in remote myocardium [1, 3] [s⁻¹]	R1 in LV chamber blood [1, 3] [s⁻¹]	Average ΔR1r in the remote viable regions [1, 4] [s⁻¹]	ΔR1c in the center of the infarct (denoted 100% infarcted) [1, 4] [s⁻¹]	Average R1c (R1 in infarct core) ([2]; 24 h after PCA) [s⁻¹]	Average ΔR1c (ΔR1 in infarct core) ([2]; 24 h after PCA) [s⁻¹]	Average R1r (R1 in remote regions) ([2]; 24 h after PCA) [s⁻¹]	Average ΔR1r (ΔR1 in remote regions) ([2]; 24 h after PCA) [s⁻¹]	Average R1c (R1 in infarct core) ([2]; 48 h after PCA) [s⁻¹]	Average ΔR1c (ΔR1 in infarct core) ([2]; 48 h after PCA) [s⁻¹]	Average R1r (R1 in remote regions) ([2]; 48 h after PCA) [s⁻¹]	Average ΔR1r (ΔR1 in remote regions) ([2]; 48 h after PCA) [s⁻¹]	persistence of ΔR1 / agent in the infarct ([2]; infarct region, after a single administration)	hourly change in R1 ([2]; viable tissue, between 24 and 48 hours post PCA, interpolated) [percent/hour]
		O=C([O-])CN(CCN(CC(=O)[O-])CC(=O)O)CCN(CC(=O)[O-])CC(=O)O.[Gd+3] [Gd(DTPA)]	3.22 ± 0.09	1.73 ± 0.07	2.53 ± 0.05	0.7 ± 0.07	2.19 ± 0.09										
less than one percent of the measured R1	less than 1 % of R1	Gd(ABE-DTTA)						2.33 ± 0.5	1.21 ± 0.5	1.23 ± 0.06	0.26 ± 0.03	2.31 ± 0.4	1.27 ± 0.3	1.15 ± 0.08	0.18 ± 0.05	observable throughout the first week from administration; also recorded: still observable in the infarct region one week after administration	0.26±0.1

Source: patent US20080108894A1, “Methods and Systems of Analyzing Clinical Parameters and Methods of Producing Visual Images” (priority 2004, published 2008)
